Results as given in patent US20030108964A1, “Caspase-inhibitory-factor(cif)and uses thereof” (priority 2002, published 2003).

What was measured:
[1] = test system: recombinant active caspase-6 (R-Csp-6); assay: CIF activity: protein extracts of treated neurons added to recombinant active caspase-6 in vitro (Ac-VEID-AFC); format: cell-based, human
Description: (§1) Primary cultures of neurons were established from 12-14 week old foetal brains, according to ethical regulations of the Medical Research Council of Canada and approved by McGill University. Institutional Review Board. Briefly, cortical and subcortical brain tissue is minced, dissociated in 0.25% trypsin for 15 minutes at 37° C. Trypsin is inactivated with 10% serum and 0.1 mg/ml deoxyribonuclease I added before triturating to completely dissociate the cells. The mixture is successively passed through 130 μm and 70 μm filters, and cells plated at 3×10^6/ml on poly-L-lysine coated tissue culture dishes or ACLAR™ (33C; 5 mm; Allied Chemical Corp.) coverslips in phenol-free minimal essential media in Earle's balanced salt solution containing 0.225% sodium bicarbonate, 1 mM sodium pyruvate, 2 mM L-glutamine, 0.1% dextrose, 1×antibiotic Pen-Strep (all products from Gibco-BRL) and 5% decomplemented fetal bovine serum (Hyclone).
(§2) All were obtained from Sigma and dissolved as stock solutions in 100% ethanol. Dilutions of 1/1000 was made in culture media immediately before use. The media was changed with fresh solution every 48 hours. Controls received an equivalent amount of ethanol.
(§3) Cycloheximide (Sigma) was made at 1 mg/ml in distilled-water and diluted at 5 and 20 μg/ml in culture media before treatment. To assess the efficiency of cycloheximide as an inhibitor of translation at these concentrations, neurons were labeled with 100 μCi/ml of ^35S-methionine (Easy Tag NEN-DUPONT) for 6 hours in the absence or presence of cycloheximide. Proteins were extracted in NP-40 lysis buffer, immunoprecipitated and separated by 10% polyacrylamide gel electrophoresis. To test the effect of cycloheximide on the neuroprotective effect of 17-β-estradiol, neurons were microinjected with R-Csp-6 and incubated with 10 nM 17-β-estradiol in the absence or presence of cycloheximide for 48 hours. To test the effect of cycloheximide on 17-β-estradiol induction of CIF, neurons were incubated with 10 nM 17-β-estradiol in the absence or presence of cycloheximide for 6 hours.
After treatment, neuron proteins were extracted in caspase lysis buffer (50 mM Hepes pH 7.4, 0.1% CHAPS, 1 mM DTT, 0.1 mM EDTA) for 10 minutes on ice followed by microcentrifugation to remove insoluble material. Protein concentration was determined by bicinchoninic acid (BCA) assay (Pierce). Proteins (10 μg/100 μl assay) were added to 10 ng recombinant active caspase (Pharmingen or BioMol) in caspase assay buffer (20 mM Pipes, 30 mM NaCl, 10 mM DTT, 1 mM EDTA, 0.1% CHAPS, 10% sucrose pH 7.2) and 68.5 μM Ac-VEID-AFC for caspase-6, Ac-DEVD-AFC for caspase-3 and caspase-7, and Ac-IETD-AMC for caspase-8 (BioMol). The caspase-6 activity was measured at 37° C. every 2 minutes for 1 hour to determine the linear range of activity. Based on an AFC or AMC standard curve, the amount of released AFC or AMC was measured and the specific activity of the caspase determined as nmoles released AFC or AMC/pg protein/minute.

[2] = test system: R-Csp-6-mediated apoptosis in primary cultures of human neurons; assay: TUNEL cell death of primary human neurons microinjected with recombinant active caspase-6; format: cell-based; details: for effect on 17-β-estradiol neuroprotective effect against caspase-6: 10 nM added to 17-β-estradiol
Description: as §1
The cells attach rapidly and establish intricate neuritic networks within 3 days. Fluorodeoxyuridine (FdU) is added at 1 mM to prevent proliferation of dividing cells. Typically, the culture is composed of 90-95% neurons and 5-10% astrocytes that survive in culture for 4-6 weeks. Experiments on neurons and astrocytes were conducted at 10 days of culture.
Glass micropipettes of 1.0 mm OD and 0.5 mm ID thin-walled glass capillaries with microfilaments (Borosilicate with filament MTW100F-4, World Precise Instrument Co.) were pulled with a Flaming/Brown micropipette puller (P-87) with a tip diameter of […]. Recombinant active caspase-6 or caspase-3 (R-Csp-6 and R-Csp-3 from Pharmingen) were prepared in caspase active buffer containing 20 mM piperazine-N,N′-βis-(2-ethanesulfonic acid) (PIPES), 100 mM NaCl, 10 mM dithiothreitol (DTT), 1 mM EDTA, 0.1% 3-[(3-cholamidopropyl)-dimethylammonio]-2-hydroxy-1-propanesulfonic acid (CHAPS), 10% sucrose, pH 7.2. R-Csp-6 was co-injected with Dextran Texas Red (DTR; at 100 μg/ml) (Cedarlane Laboratories Ltd.) as a fluorescent marker to recognize injected neurons. […] Microinjections were done with the Eppendorf Microinjector 5246 and MIS-5000 Burleigh micromanipulator; injection pressure of 100 hPa, compensation pressure of 50 hPa, and injection time of 0.1 s. The injected volume was 1 nl/shot.
Neurons were fixed in fresh 4% paraformaldehyde/4% sucrose in PBS and permeabilized with 0.1% Triton X-100 in 0.1% sodium citrate. Cell death was detected by TUNEL (TdT-mediated dUTP Nick End Labeling) using the Cell Death Kit I (Roche Molecular Biochemicals) as described by the manufacturer. The percentage of neuronal cell death was determined by the ratio of the number of DTR-TUNEL-double-positive neurons over the total number of DTR-positive neurons.
as §2
as §3, with “hours.” for “hours. To test the effect of cycloheximide on 17-β-estradiol induction of CIF, neurons were incubated with 10 nM 17-β-estradiol in the absence or presence of cycloheximide for 6 hours.”

[3] = test system: Endogenous Csp-6 in human breast cancer cell line, MCF7; assay: Endogenous Csp-6 specific activity in treated MCF7 extract; format: cell-based; details: MCF7 extract treated 48 hours; for Endogenous Csp-6 Specific Activity: control 6.34 (0.02); for Csp-6 activity remaining (% of control): control 100%
R-Csp-6 = R-Csp-6 specific activity in presence of treated MCF7 extract; format: cell-based, human; details: MCF7 extract treated 48 hours; for R-Csp-6 Specific Activity: control 6.15 (0.7); for R-Csp-6 activity remaining (% of control): control 100%
Description: After treatment, neuron proteins were extracted in caspase lysis buffer (50 mM Hepes pH 7.4, 0.1% CHAPS, 1 mM DTT, 0.1 mM EDTA) for 10 minutes on ice followed by microcentrifugation to remove insoluble material. Protein concentration was determined by bicinchoninic acid (BCA) assay (Pierce). […] Based on an AFC or AMC standard curve, the amount of released AFC or AMC was measured and the specific activity of the caspase determined as nmoles released AFC or AMC/pg protein/minute.

[4] = test system: endogenous neuronal caspase-6; assay: Endogenous caspase-6 activity in treated neurons; format: cell-based, human; details: neurons treated for 48 hours
Description: as §1, with “(Hyclone). […] All were obtained from Sigma and dissolved as stock solutions in 100% ethanol. Dilutions of 1/1000 was made in culture media immediately before use. […] Protein concentration was determined by bicinchoninic acid (BCA) assay (Pierce). […] Based on an AFC or AMC standard curve, the amount of released AFC or AMC was measured and the specific activity of the caspase determined as nmoles released AFC or AMC/pg protein/minute.” for “(Hyclone).”

[5] = test system: caspase-3-mediated astrocytic cell death; assay: TUNEL cell death of human astrocytes microinjected with caspase-3; format: cell-based; details: 10 nM
[6] = test system: Human astrocytes extracts, CIF activity; assay: CIF activity in extracts of treated human astrocytes; format: cell-based; details: 10 nM, 6 hours
[7] = test system: protein translation in neurons; assay: 35S-methionine labelling of neurons to assess inhibition of translation; format: cell-based, human; details: 5-20 μg/ml
Description: as §3

[8] = 10 μM with 10 nM 17-β-estradiol

C[C@]12CC[C@@H]3c4ccc(O)cc4CC[C@H]3[C@@H]1CC[C@H]2O [17-α-estradiol]
inhibition of active caspase-6 by extracts from treated neurons ([1]; 1, 10, or 100 nM, neurons treated 6 hours): neither 1, 10, or 100 nM 17-α-estradiol significantly inhibit active caspase-6
protection against R-Csp-6 ([2]; 10 nM, 48 hours, 5 pg R-Csp-6/cell): do not protect significantly
Endogenous Csp-6 Specific Activity ([3]; 10 nM): 7.13 (0.06) pmoles/μg protein/min.
Csp-6 activity remaining (% of control) ([3]; 10 nM): 112%
R-Csp-6 Specific Activity (R-Csp-6; 10 nM): 7.19 (0.01) nmoles/μg protein/min.
R-Csp-6 activity remaining (% of control) (R-Csp-6; 10 nM): 117%

C[C@]12CC[C@@H]3c4ccc(O)cc4CC[C@H]3[C@@H]1CC[C@@H]2O [17-β-estradiol]
endogenous caspase-6 activity in treated neurons [4]: inhibits endogenous caspase-6 activity
inhibition of recombinant active caspase-6 in vitro by neuronal protein extracts from treated neurons [1]: inhibit recombinant active caspase-6 in vitro
inhibition of the activity of R-Csp-6 by extracts from treated neurons ([1]; neurons treated 6 hours, 1-100 nM, 10 μg protein): 40-60%
time of exposure at which CIF activity is maximal ([1]; time response curve): 1 h
time of exposure to neurons until CIF activity is induced ([1]; time response curve): ≤ 10 min
level of apoptosis of microinjected neurons (TUNEL) ([2]; 10 nM, 48 hours, 5 pg R-Csp-6/cell, R-Csp-6 alone 50%): 20%
protection against caspase-6 ([2]; 10 nM, time study, until 8 days): 50%
protection against caspase-6 mediated apoptosis ([2]; 0.01 or 0.1 nM): not 0.01 or 0.1 nM
protection against caspase-6 mediated apoptosis ([2]; 1 to 100 nM): significant protection
exposure time at which neuronal apoptosis is decreased to maximal levels ([2]; hormone washed away, incubated until 48 hours): 10 min
Endogenous Csp-6 Specific Activity ([3]; 1 nM): 4.02 (0.02) pmoles/μg protein/min.
Csp-6 activity remaining (% of control) ([3]; 1 nM): 63%
Endogenous Csp-6 Specific Activity ([3]; 10 nM): 4.84 (0.03) pmoles/μg protein/min.
Csp-6 activity remaining (% of control) ([3]; 10 nM): 76%
Endogenous Csp-6 Specific Activity ([3]; 100 nM): 5.06 (0.01) pmoles/μg protein/min.
Csp-6 activity remaining (% of control) ([3]; 100 nM): 80%
prevention of caspase-3 mediated astrocytic cell death [5]: could not prevent
R-Csp-6 Specific Activity (R-Csp-6; 1 nM): 3.82 (0.04) nmoles/μg protein/min.
R-Csp-6 activity remaining (% of control) (R-Csp-6; 1 nM): 62%
R-Csp-6 Specific Activity (R-Csp-6; 10 nM): 3.25 (0.03) nmoles/μg protein/min.
R-Csp-6 activity remaining (% of control) (R-Csp-6; 10 nM): 53%
R-Csp-6 Specific Activity (R-Csp-6; 100 nM): 4.30 (0.1) nmoles/μg protein/min.
R-Csp-6 activity remaining (% of control) (R-Csp-6; 100 nM): 70%
CIF activation in astrocytes [6]: CIF is not activated in astrocytes

CC/C(=C(/CC)c1ccc(O)cc1)c1ccc(O)cc1 [DES, diethylstilbesterol]
effect on 17-β-estradiol induction of CIF ([1]; 10 nM added to 17-β-estradiol): inhibits 17-β-estradiol induction of CIF
induction of CIF in neurons ([1]; 10 nM, alone): Neither DES nor EE induce CIF
effect on 17-β-estradiol neuroprotective effect against caspase-6 ([2]; 48 hours): inhibits
induction of neuroprotection in neurons ([2]; 10 nM, alone, 48 hours): nor induce neuroprotection

C[C@@H]1C[C@@H]([C@H](O)CC2CC(=O)NC(=O)C2)C(=O)[C@@H](C)C1 [cycloheximide]
effect on 17-β-estradiol induction of CIF ([1]; 5-20 μg/ml with 10 nM 17-β-estradiol, 6 hours): no effect
protein translation in neurons [7]: greatly inhibit protein translation
effect on 17-β-estradiol-mediated neuroprotection ([2]; 5-20 μg/ml with 10 nM 17-β-estradiol, 48 hours): no effect

CC/C(=C(\c1ccccc1)c1ccc(OCCN(C)C)cc1)c1ccccc1 [tamoxifen]
effect on 17-β-estradiol induction of CIF ([1]; 10 nM added to 17-β-estradiol): inhibits 17-β-estradiol effect
block of 17-β-estradiol induced CIF activation [1, 8]: efficiently blocked
effect on 17-β-estradiol neuroprotective effect against caspase-6 ([2]; 48 hours): inhibits 17-β-estradiol effect
block of neuroprotective function of 17-β-estradiol against caspase-6 [2, 8]: efficiently blocked
